Positions of bridges follow the written chain, without caps; N, C: chain ends. Non-standard residues stand in square brackets, D forms with d. Residues, ends and D or L forms follow the SMILES beside them. *: point of attachment. X1 = CC[C@H](C)CCCCC(=O)*; Dab = NCC[C@H](N)C(=O)O
What was measured:
S. aureus 29213 [1] = test: Minimum inhibitory concentration; assay type: cell-based; conditions: for Minimum Inhibitory Concentration (MIC): S. aureus 29213, Gram-positive, actively growing
E. coli 25922 [2] = test: Minimum inhibitory concentration; assay type: cell-based; conditions: for Minimum Inhibitory Concentration (MIC): E. coli 25922, Gram-negative
A. baumannii 19606 = test: Minimum inhibitory concentration; assay type: cell-based; conditions: for Minimum Inhibitory Concentration (MIC): A. baumannii 19606, Gram-negative
P. aeruginosa PA14 = test: Minimum inhibitory concentration; assay type: cell-based; conditions: for Minimum Inhibitory Concentration (MIC): P. aeruginosa PA14, Gram-negative
M. smegmatis 700084 [3] = test: Minimum inhibitory concentration; assay type: cell-based; conditions: M. smegmatis 700084, mycobacteria
M. abscessus 19977 = test: Minimum inhibitory concentration; assay type: cell-based; conditions: M. abscessus 19977, mycobacteria
[4] = tested on: biofilm-associated S. aureus 29213; test: Minimum biofilm eradication concentration; assay type: cell-based
[5] = tested on: biofilm-associated E. coli 25922; test: Minimum biofilm eradication concentration; assay type: cell-based
[6] = tested on: biofilm-associated M. smegmatis 700084; test: Minimum biofilm eradication concentration; assay type: cell-based
E. faecium 51559 [7] = conditions: E. faecium 51559, vanA-type resistance reference strain (VRE)
K. pneumoniae 700603 [8] = conditions: K. pneumoniae 700603, Gram-negative
M. avium 700898 [9] = conditions: M. avium 700898, mycobacteria
E. faecium 51559 [10] = test: microbe, parasite or virus in culture; conditions: Enterococcus faecium, VRE, read-out: Minimum Inhibitory Concentration (MIC)
K. pneumoniae 700603 [11] = test: microbe, parasite or virus in culture; conditions: Klebsiella pneumoniae, 700603, read-out: Minimum Inhibitory Concentration (MIC)
M. avium 700898 [12] = test: microbe, parasite or virus in culture; conditions: Mycobacterium avium, 700898, read-out: Minimum Inhibitory Concentration (MIC)
[13] = tested on: panel containing Gram-positive, Gram-negative, and mycobacterial microorganisms; test: MIC assay, statements over the whole panel; assay type: cell-based; conditions: Gram-negative organisms (E. coli, A. baumannii, K. pneumoniae, P. aeruginosa)
S. aureus = test: Peptidoglycan precursor accumulation, LC-MS; assay type: cell-based; conditions: treatment, cell lysis
M. smegmatis = test: Peptidoglycan precursor accumulation, LC-MS; assay type: cell-based; conditions: treatment, cell lysis
S. aureus 29213 [14] = test: Membrane permeability, propidium iodide; assay type: cell-based; conditions: S. aureus 29213, exponential-phase cells in HEPES-Glucose buffer
E. coli 25922 [15] = test: Outer membrane permeability, 1-N-phenylnapthylamine; assay type: cell-based; conditions: E. coli 25922, 5e at 80 μM (10x MIC)
M. smegmatis 700084 [16] = test: Ethidium bromide; assay type: cell-based; conditions: M. smegmatis 700084, 8 μM (1x MIC)
[17] = biofilm-associated S. aureus 29213, as given in the text
[18] = pre-formed biofilm of E. coli 25922, Table 2
[19] = pre-formed biofilms of E. coli 25922, as given in the text

Row | Molecule | Minimum Inhibitory Concentration (MIC) (S. aureus 29213 [1]) [µM] | Minimum Inhibitory Concentration (MIC) (E. coli 25922 [2]) [µM] | Minimum Inhibitory Concentration (MIC) (A. baumannii 19606) [µM] | Minimum Inhibitory Concentration (MIC) (P. aeruginosa PA14) [µM] | Minimum Inhibitory Concentration (MIC) (M. smegmatis 700084 [3]) [µM] | Minimum Inhibitory Concentration (MIC) (M. abscessus 19977) [µM] | minimum biofilm eradication concentration (MBEC) [4, 17] [µM] | minimum biofilm eradication concentration (MBEC) [5, 18] [µM] | minimum biofilm eradication concentration (MBEC) [5, 19] | Minimum Inhibitory Concentration (MIC) (E. faecium 51559 [7]) [µM] | Minimum Inhibitory Concentration (MIC) (K. pneumoniae 700603 [8]) [µM] | Minimum Inhibitory Concentration (MIC) (M. avium 700898 [9]) [µM] | further results
1 | CN[C@H](CC(C)C)C(=O)N[C@H]1C(=O)N[C@@H](CC(N)=O)C(=O)N[C@H]2C(=O)N[C@H]3C(=O)N[C@H](C(=O)N[C@H](C(=O)O)c4cc(O)cc(O)c4-c4cc3ccc4O)[C@H](O[C@H]3C[C@](C)(N)[C@@H](O)[C@H](C)O3)c3ccc(c(Cl)c3)Oc3cc2cc(c3O[C@@H]2O[C@H](CO)[C@@H](O)[C@H](O)[C@H]2O[C@H]2C[C@](C)(NCc3ccc(-c4ccc(Cl)cc4)cc3)[C@@H](O)[C@H](C)O2)Oc2ccc(cc2Cl)[C@H]1O [Oritavancin, oritavancin] | 1 | >512 | 512 | >512 | 32 | 128 | 2 to 4 | >128 | no activity | 2 | >512 | 128 | minimum biofilm eradication concentration (MBEC) ([4]; pre-formed biofilm of S. aureus 29213, Table 2): 2 to 4 µM; minimum biofilm eradication concentration (MBEC) ([6]; pre-formed biofilms of M. smegmatis 700084, as given in the text): > 256 µM
2 | CO[C@H]1/C=C/O[C@@]2(C)Oc3c(C)c(O)c4c(O)c(c(/C=N/N5CCN(C)CC5)c(O)c4c3C2=O)NC(=O)/C(C)=C\C=C\[C@H](C)[C@H](O)[C@@H](C)[C@@H](O)[C@@H](C)[C@H](OC(C)=O)[C@@H]1C [Rifampicin, rifampicin] | – | – | – | – | – | – | 16 to 32 | – | – | – | – | – | –
3 | CN(C)C(=N)N=C(N)N [Metformin, metformin] | – | – | – | – | – | – | – | – | – | – | – | – | MIC (S. aureus 29213 [1]; Staphylococcus aureus, 29213, read-out: Minimum Inhibitory Concentration (MIC)): > 512 µM; MIC (E. coli 25922 [2]; Escherichia coli, 25922, read-out: Minimum Inhibitory Concentration (MIC)): > 512 µM; MIC (A. baumannii 19606; Acinetobacter baumannii, 19606, read-out: Minimum Inhibitory Concentration (MIC)): > 512 µM; MIC (P. aeruginosa PA14; Pseudomonas aeruginosa, PA14, read-out: Minimum Inhibitory Concentration (MIC)): > 512 µM; MIC (E. faecium 51559 [10]): > 512 µM; MIC (K. pneumoniae 700603 [11]): > 512 µM; MIC (M. avium 700898 [12]): > 512 µM
4 | CC[C@H](C)CCCCC(=O)N[C@@H](CCN)C(=O)N[C@H](C(=O)N[C@@H](CCN)C(=O)N[C@H]1CCNC(=O)[C@H]([C@@H](C)O)NC(=O)[C@H](CCN)NC(=O)[C@H](CCN)NC(=O)[C@H](CC(C)C)NC(=O)[C@@H](Cc2ccccc2)NC(=O)[C@H](CCN)NC1=O)[C@@H](C)O [Polymyxin B, polymyxin B] (X1-[Dab]T[Dab][Dab][Dab][dF]L[Dab][Dab]T; lactam 4-C (inferred); N-terminus assumed) | – | – | – | – | – | – | – | 16 to 32 | 16 to 32 µM | – | – | – | –
5 | Gentamycin | – | – | – | – | – | – | – | 8 | – | – | – | – | –
6 | CN[C@H](CC(C)C)C(=O)N[C@H]1C(=O)N[C@@H](CC(N)=O)C(=O)N[C@H]2C(=O)N[C@H]3C(=O)N[C@H](C(=O)N[C@H](C(=O)O)c4cc(O)cc(O)c4-c4cc3ccc4O)[C@H](O)c3ccc(c(Cl)c3)Oc3cc2cc(c3O[C@@H]2O[C@H](CO)[C@@H](O)[C@H](O)[C@H]2O[C@H]2C[C@](C)(N)[C@H](O)[C@H](C)O2)Oc2ccc(cc2Cl)[C@H]1O [Vancomycin, vancomycin] | 1 | 128 to 256 | 64 to 128 | 256 to 512 | 8 | 32 to 64 | > 512 | – | 256 µM | 512 | 256 to 512 | 16 | typical MIC against Gram-negative organisms [13]: ≥ 128 µM; minimum biofilm eradication concentration (MBEC) ([6]; pre-formed biofilm of M. smegmatis 700084, Table 2): 64 µM; accumulation of peptidoglycan precursor (UDP-MurNAc pentapeptide) (S. aureus): accumulation of the UDP-MurNAc pentapeptide; accumulation of peptidoglycan precursor (UDP-MurNGlyc pentapeptide) (M. smegmatis): related UDP-MurNGlyc pentapeptide in M. smegmatis; PI fluorescence (membrane permeabilization) (S. aureus 29213 [14]): no increase in fluorescence; NPN fluorescence (outer membrane destabilization) (E. coli 25922 [15]): no increase in fluorescence; EtBr fluorescence (M. smegmatis 700084 [16]): did not influence EtBr fluorescence
